Source: ChEMBL document CHEMBL3407414, “Discovery of AZD3147: a potent, selective dual inhibitor of mTORC1 and mTORC2” (J Med Chem, 2015)

Experiments:
[1] = Lipophilicity, log D of the compound; format: physicochemical; details: octanol/water
[2] = tested on: human MDR1; experiment: Apparent permeability from basolateral to apical side of MDCK2 cells expressing human MDR1 at 10 uM; format: ADME, cell-based, Canis lupus familiaris, MDCK-II; details: dog, MDCK-MDR1
[3] = Half life in Beagle dog; format: ADME, organism-based, Canis lupus familiaris; details: in vivo
[4] = Clearance in CD-1 mouse at 2.5 to 10 umol/kg, iv; format: ADME, organism-based; details: in vivo
[5] = Volume of distribution at steady state in CD-1 mouse; format: ADME, organism-based; details: in vivo, read-out: Vdss
[6] = Oral bioavailability in CD-1 mouse at 5 to 20 umol/kg; format: ADME, organism-based; details: in vivo
[7] = Half life in CD-1 mouse; format: ADME, organism-based; details: in vivo
[8] = Oral bioavailability in Beagle dog at 3 to 10 umol/kg; format: ADME, organism-based, Canis lupus familiaris; details: in vivo
[9] = Clearance in Beagle dog at 1 to 3 umol/kg, iv; format: ADME, organism-based, Canis lupus familiaris; details: in vivo
[10] = tested on: human MDR1; experiment: Apparent permeability from apical to basolateral side of MDCK2 cells expressing human MDR1 at 10 uM; format: ADME, cell-based, Canis lupus familiaris, MDCK-II; details: dog, MDCK-MDR1
[11] = Volume of distribution at steady state in Beagle dog; format: ADME, organism-based, Canis lupus familiaris; details: in vivo, read-out: Vdss
[12] = Intrinsic clearance in human hepatocytes assessed per million cells; format: ADME, cell-based, Hepatocyte; details: read-out: CLH

| SMILES | logD [1] | other results |
| --- | --- | --- |
| C[C@H]1COCCN1c1cc(CS(C)(=O)=O)nc(-c2ccc(NC(=O)Nc3ccc(F)cc3)cc2)n1 | 3.8 | – |
| C[C@H]1COCCN1c1cc(C2(S(=O)(=O)C3CC3)CC2)nc(-c2ccc(NC(=S)NCCO)cc2)n1 | 2.1 | Papp B→A at 10 µM [2]: 43 ×10⁻⁶ cm/s; half-life [3]: 1.9 h; clearance [4]: 8 mL/min/kg; Vd [5]: 2.3 L/kg; bioavailability [6]: 61%; half-life [7]: 0.9 h; bioavailability [8]: 73%; clearance [9]: 16 mL/min/kg; Papp A→B at 10 µM [10]: 5.6 ×10⁻⁶ cm/s; Vd [11]: 2 L/kg |
| C[C@H]1COCCN1c1cc(CS(C)(=O)=O)nc(-c2ccc(NC(=O)NCCO)cc2)n1 | 1 | – |
| CNC(=O)Nc1ccc(-c2nc(CS(C)(=O)=O)cc(N3CCOC[C@@H]3C)n2)cc1 | 1.54 | – |
| CS(=O)(=O)Cc1cc(N2CCOCC2)nc(-c2ccc(NC(=O)Nc3ccc(F)cc3)cc2)n1 | > 3.2 | – |
| C[C@H]1COCCN1c1cc(C2(S(=O)(=O)c3ccccc3)CC2)nc(-c2ccc(NC(=O)NCCCO)cc2)n1 | 2.85 | Papp B→A at 10 µM [2]: 31 ×10⁻⁶ cm/s; Papp A→B at 10 µM [10]: 0.15 ×10⁻⁶ cm/s |
| C[C@H]1COCCN1c1cc(C2(S(=O)(=O)CCCO)CC2)nc(-c2ccc(NC(=S)NC3CC3)cc2)n1 | 2.2 | Papp B→A at 10 µM [2]: 22 ×10⁻⁶ cm/s; Papp A→B at 10 µM [10]: 0.18 ×10⁻⁶ cm/s |
| C[C@H]1COCCN1c1cc(C2(S(C)(=O)=O)CCCC2)nc(-c2ccc(NC(=O)NC3CC3)cc2)n1 | > 3.4 | – |
| CNC(=O)Nc1ccc(-c2nc(N3CCOC[C@@H]3C)cc(C3(S(=O)(=O)c4ccncc4)CC3)n2)cc1 | 2.5 | – |
| C[C@H]1COCCN1c1cc(C2(S(C)(=O)=O)CCC2)nc(-c2ccc(NC(=O)NC3CC3)cc2)n1 | 3.3 | – |
| CNC(=O)Nc1ccc(-c2nc(CS(C)(=O)=O)cc(N3CCOC[C@@H]3C)n2)cc1OC | 1.79 | – |
| C[C@H]1COCCN1c1cc(C2(S(=O)(=O)CCCO)CC2)nc(-c2ccc(NC(=S)NCCO)cc2)n1 | 1.6 | – |
| CNC(=O)Nc1ccc(-c2nc(CS(=O)(=O)c3ccncc3)cc(N3CCOC[C@@H]3C)n2)cc1 | 2.1 | – |
| CNC(=O)Nc1ccc(-c2nc(CS(=O)(=O)C3CCCCC3)cc(N3CCOC[C@@H]3C)n2)cc1 | 3.6 | – |
| CNC(=O)Nc1ccc(-c2nc(CS(=O)(=O)C3CC3)cc(N3CCOC[C@@H]3C)n2)cc1 | 2 | – |
| C[C@H]1COCCN1c1cc(CS(C)(=O)=O)nc(-c2ccc(NC(=O)NC3CC3)cc2)n1 | 1.9 | – |
| C[C@H]1COCCN1c1cc(C(C)(C)S(C)(=O)=O)nc(-c2ccc(NC(=S)NCCO)cc2)n1 | 2.15 | – |
| C[C@H]1COCCN1c1cc(C2(S(C)(=O)=O)CCOCC2)nc(-c2ccc(NC(=O)NC3CC3)cc2)n1 | 2.8 | – |
| CNC(=O)Nc1ccc(-c2nc(CS(=O)(=O)c3ccccc3)cc(N3CCOC[C@@H]3C)n2)cc1 | 2.65 | – |
| CCNC(=O)Nc1ccc(-c2nc(CS(C)(=O)=O)cc(N3CCOC[C@@H]3C)n2)cc1 | 1.93 | – |

| SMILES | logD [1] | other results |
| --- | --- | --- |
| CNC(=O)Nc1ccc(-c2nc(N3CCOC[C@@H]3C)cc(C(C)(C)S(C)(=O)=O)n2)cc1 | – | hepatocyte CLint [12]: 36.3 µL/min/1e6 cells |
| C[C@H]1COCCN1c1cc(C(C)(C)S(C)(=O)=O)nc(-c2ccc(NC(=O)NC3CC3)cc2)n1 | 2.62 | hepatocyte CLint [12]: 50 µL/min/1e6 cells |
| CC(C)NC(=O)Nc1ccc(-c2nc(CS(C)(=O)=O)cc(N3CCOC[C@@H]3C)n2)cc1 | 2.45 | – |
| C[C@H]1COCCN1c1cc(CS(C)(=O)=O)nc(-c2ccc(NC(=O)Nc3cnn(C)c3)cc2)n1 | 1.85 | – |
| C[C@H]1COCCN1c1cc(C2(S(C)(=O)=O)CC2)nc(-c2ccc(NC(=S)NCCO)cc2)n1 | 1.78 | Papp B→A at 10 µM [2]: 17 ×10⁻⁶ cm/s; Papp A→B at 10 µM [10]: 0.07 ×10⁻⁶ cm/s |
| CNC(=O)c1cccc(-c2ccc3c(N4CCOC[C@@H]4C)nc(N4CCOC[C@@H]4C)nc3n2)c1 [VISTUSERTIB] | – | hepatocyte CLint [12]: < 4.2 µL/min/1e6 cells |
| C[C@H]1COCCN1c1cc(C2(S(=O)(=O)c3ccc(F)cc3)CC2)nc(-c2ccc(NC(=O)NCCO)cc2)n1 | 3.01 | – |
| C[C@H]1COCCN1c1cc(C2(S(C)(=O)=O)CCC2)nc(-c2ccc(NC(=O)NCCO)cc2)n1 | 2.4 | – |
| COc1ccc(NC(=O)Nc2ccc(-c3nc(CS(C)(=O)=O)cc(N4CCOC[C@@H]4C)n3)cc2)cc1 | 2.88 | – |
| C[C@H]1COCCN1c1cc(CS(C)(=O)=O)nc(-c2ccc(NC(=O)NCCN(C)C)cc2)n1 | 0.3 | – |
| C[C@H]1COCCN1c1cc(CS(C)(=O)=O)nc(-c2ccc(NC(=O)Nc3ccccc3)cc2)n1 | 3.3 | – |
| C[C@H]1COCCN1c1cc(C2(S(=O)(=O)C3CC3)CC2)nc(-c2ccc(NC(=O)NC3CC3)cc2)n1 | 2.94 | – |
| C[C@H]1COCCN1c1cc(C2(S(=O)(=O)C3CC3)CC2)nc(-c2ccc(NC(=O)NCCO)cc2)n1 | 2.1 | – |
| CNC(=O)Nc1ccc(-c2nc(CS(C)(=O)=O)cc(N3CCOC[C@@H]3C)n2)cc1C | 1.5 | – |
| COc1ccc(CNC(=O)Nc2ccc(-c3nc(CS(C)(=O)=O)cc(N4CCOC[C@@H]4C)n3)cc2)cc1 | 2.8 | – |
| C[C@H]1COCCN1c1cc(C2(S(C)(=O)=O)CC2)nc(-c2ccc(NC(=O)NC3CC3)cc2)n1 | 2.62 | hepatocyte CLint [12]: 37.8 µL/min/1e6 cells |
| C[C@H]1COCCN1c1cc(C2(S(=O)(=O)c3ccccc3)CC2)nc(-c2ccc(NC(=O)NCCO)cc2)n1 | 2.8 | Papp B→A at 10 µM [2]: 24 ×10⁻⁶ cm/s; Papp A→B at 10 µM [10]: 0.18 ×10⁻⁶ cm/s |
| C[C@H]1COCCN1c1cc(CS(C)(=O)=O)nc(-c2ccc(NC(=S)NC3CC3)cc2)n1 | 1.74 | – |
| C[C@H]1COCCN1c1cc(C2(S(=O)(=O)CCCO)CC2)nc(-c2ccc(NC(=O)NC3CC3)cc2)n1 | 2.4 | – |
| C[C@H]1COCCN1c1cc(CS(=O)(=O)CCCO)nc(-c2ccc(NC(=O)NC3CC3)cc2)n1 | 1.7 | – |
